# Reference: PubChem BioAssay (NCI)
# Several values for one entry are separate records, joined by “and”; a condition that tells them apart may be missing. Equal entries are not always repeated.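 Following 48 hours of exposure in 96-well plates, responses at five concentrations were used to interpolate endpoints linearly. At the GI50, growth is halved. TGI marks complete inhibition of growth.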
# System: MDA-MB-468 breast
# Assay: NCI-60 cell line screen, 48 h
SMILES,GI50,TGI
COc1ccccc1CN=C1NC(=O)/C(=C/c2ccc3ncccc3c2)S1,3.35 µM,> 25 µM
COc1ccc2nc(-c3ccc(Cl)cc3)cc(-c3nnc(SCC(=O)Nc4ccc(/C(C)=N\O)cc4)o3)c2c1,1.38 µM,3.58 µM
Nc1c(C(=O)c2cccc(C(O)(CO)CO)c2)cnn1-c1ccc(F)cc1,> 25 µM,> 25 µM
CCCCCCCC(=O)SCC/C=C/[C@@H]1CC(=O)NCc2cccc(n2)C2=N[C@@](C)(CS2)C(=O)N[C@@H](C(C)C)C(=O)O1,0.107 µM,> 33.3 µM
CCN(CC)c1ccc(CNc2cc(C)nc3ccc(OC)cc23)cc1,1.02 µM,2.63 µM
COc1cc(-c2nn(-c3ccc(NC(=O)Nc4ccc(Cl)c(C(F)(F)F)c4)cc3)cc2-c2ccncc2)ccc1Cl,1.39 µM,3.23 µM
Oc1ccccc1/C=N/Nc1nc2ccccc2s1,2.51 µM,60.7 µM
COc1ccc2c(c1)O/C(=C\c1ccc([N+](=O)[O-])o1)C2=O,0.519 µM,2.26 µM
Cc1c(C)n(CC(O)CNC2CCCCC2C)c2ccccc12 (configuration not stated),9.21 µM,23 µM
COc1ccc(-c2c(-c3cc4c(c(OC)c3OC)OCO4)noc2N)cc1,0.192 µM,
c1cc2c(cc1NC1=NCCO1)CCCC2,6.18 µM,24.8 µM
O=C(/C=C/c1ccccc1)Nc1ncc(Cc2ccccc2)s1,0.416 µM,> 100 µM
O=C(Nc1ccc(-n2ccc3c(NC(=O)c4ccccc4)ncnc32)cc1)Nc1ccc(Cl)c(C(F)(F)F)c1,1.44 µM,3.32 µM
O=c1ncc(I)c[nH]1,> 100 µM,> 100 µM
C/C(=N\NC(=O)c1cccc(S(=O)(=O)N2CCN(C)CC2)c1)c1cc(Cl)ccc1O,0.402 µM,3.87 µM
COc1ccc(/C=C(/C(=O)N2CCN(c3ccc(C)cc3)CC2)c2cc(OC)c(OC)c(OC)c2)cc1N,0.224 µM,
CC(C)C[C@H](NC(=O)[C@H](Cc1ccccc1)NC(=O)c1cnccn1)B(O)O,< 0.01 µM and 0.0019 µM,< 0.01 µM and 0.0052 µM
COc1ccc(Nc2[nH]n(C3=Nc4ccccc4Sc4ccccc43)c(=O)c2C#N)cc1,0.382 µM,2.81 µM
OCCNC(=S)Nc1ccc(-c2nc(N3C[C@H]4CC[C@@H](C3)O4)c3cccn3n2)cc1,0.0174 µM,0.289 µM
N#Cc1c(N)n(C2OC(CO)C(O)C2O)c2ncnc(N)c12 (configuration not stated),0.0173 µM,0.0349 µM
CC[C@]12C=CCN3CC[C@@]4(c5ccc(OC)cc5N(C)[C@H]4[C@@](O)(C(=O)OC)[C@@H]1OC(=O)CCCC[P+](c1ccccc1)(c1ccccc1)c1ccccc1)[C@@H]32,0.195 µM,0.575 µM
COc1ccc(NC(=O)COc2ccccc2)c(C(N)=O)c1,0.453 µM,> 62.8 µM
COc1ccc(C2CC(c3ccc4ccccc4c3)=NN2/C=C2\SC(=S)N(NC(=O)Cc3ccccc3Nc3c(Cl)cccc3Cl)C2=O)cc1 (configuration not stated),0.544 µM,> 34.2 µM
O=C(NCCN1CCOCC1)Nc1nc2ccc(Sc3nnc4ccc(-c5ccc(F)cc5)nn34)cc2s1,,> 29.3 µM
CN(C)c1ccc(/C=N/NC(=O)CSc2nc3sc4c(c3c(=O)n2-c2ccccc2)CCCCC4)cc1,3.85 µM,> 100 µM
COc1cc(/C=C/C(=O)c2ccc(F)cc2)ccc1OCCCCOc1cc2c(cc1OC)C(=O)N1CCCC1C=N2 (configuration not stated),1.71 µM,3.59 µM
O=c1[nH]ccc2nc(N3CCC(O)CC3)nc(Nc3ccc(N4CCOCC4)cc3)c12,43.2 µM,> 100 µM
O=C1C2=C(C(=O)c3c(O)ccc(O)c31)N(c1cccnc1)Cc1ccccc1O2,0.175 µM,0.458 µM
CC/C=C\C[C@H](O)C/C=C1/C(=O)C=C[C@@H]1C/C=C\CCCC(=O)OCCS(=O)(=O)c1ccccc1,2.28 µM,6.83 µM
C=C(C)[C@@H]1CC[C@]2(C(=O)N3CCN(C)CC3)CC[C@]3(C)[C@H](CC[C@@H]4[C@@]5(C)C/C(=C/c6ccncc6)[C@H](O)C(C)(C)[C@@H]5CC[C@]43C)[C@@H]12,5.45 µM,26.1 µM
